Test results from the supplement of paper PMC10307832.

Key:
Assay in all cases: relative viability (nuclei count vs DMSO), 5 days (fraction); higher = more cells survive
NCI-H1734 = system: NCI-H1734
How it was run: (§1)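 One day after seeding in 1536-well plates, lung cancer cell lines were dosed by pin tool. Dosing was either single-drug or a fixed anchor-drug dose plus five library-drug doses (not always all listed) in √10 steps. After 5 days, nuclei were stained in one fix-and-stain step and counted on 4× images, and relative viability is the nuclei count of treated wells over that of vehicle wells, given as the median of duplicate plates.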

NCI-H3122 = system: NCI-H3122
How it was run: as §1

HOP-62 = system: HOP-62
How it was run: as §1

NCI-H2126 = system: NCI-H2126
How it was run: as §1

201T = system: 201T
How it was run: as §1

NCI-H1755 = system: NCI-H1755
How it was run: as §1

ChaGo-K-1 = system: ChaGo-K-1
How it was run: as §1

NCI-H2009 = system: NCI-H2009
How it was run: as §1

NCI-H322M = system: NCI-H322M
How it was run: as §1

LK-2 = system: LK-2
How it was run: as §1

NCI-H2170 = system: NCI-H2170
How it was run: as §1

H3255 = system: H3255
How it was run: as §1

NCI-H2087 = system: NCI-H2087
How it was run: as §1

LXF-289 = system: LXF-289
How it was run: as §1

NCI-H596 = system: NCI-H596
How it was run: as §1

CAL-12T = system: CAL-12T
How it was run: as §1

ABC-1 = system: ABC-1
How it was run: as §1

NCI-H441 = system: NCI-H441
How it was run: as §1

SK-MES-1 = system: SK-MES-1
How it was run: as §1

PC-14 = system: PC-14
How it was run: as §1

EMC-BAC-2 = system: EMC-BAC-2
How it was run: as §1

NCI-H1651 = system: NCI-H1651
How it was run: as §1

NCI-H647 = system: NCI-H647
How it was run: as §1

What does the source list for O=C(O)CCCCC(CCSCc1ccccc1)SCc1ccccc1 (stereo not given) [CPI-613] + O=C(CCCCCCC(=O)Nc1ccccc1)NO [Vorinostat] (partner 1 µM)?
relative viability (NCI-H1734; first compound 5 µM): 0.66; relative viability (NCI-H1734; first compound 15.81 µM): 0.768; relative viability (NCI-H1734; first compound 50 µM): 0.704; relative viability (NCI-H1734; first compound 158.11 µM): 0.147; relative viability (NCI-H1734; first compound 500 µM): 0.107; relative viability (NCI-H3122; first compound 5 µM): 0.795; relative viability (NCI-H3122; first compound 15.81 µM): 0.89; relative viability (NCI-H3122; first compound 50 µM): 0.961; relative viability (NCI-H3122; first compound 158.11 µM): 0.728; relative viability (NCI-H3122; first compound 500 µM): 0.805; relative viability (HOP-62; first compound 5 µM): 0.531; relative viability (HOP-62; first compound 15.81 µM): 0.49; relative viability (HOP-62; first compound 50 µM): 0.574; relative viability (HOP-62; first compound 158.11 µM): 0.285; relative viability (HOP-62; first compound 500 µM): 0.0726; relative viability (NCI-H2126; first compound 5 µM): 0.743; relative viability (NCI-H2126; first compound 15.81 µM): 0.68; relative viability (NCI-H2126; first compound 50 µM): 0.831; relative viability (NCI-H2126; first compound 158.11 µM): 0.342; relative viability (NCI-H2126; first compound 500 µM): 0.179; relative viability (201T; first compound 5 µM): 0.961; relative viability (201T; first compound 15.81 µM): 0.865; relative viability (201T; first compound 50 µM): 0.958; relative viability (201T; first compound 158.11 µM): 0.328; relative viability (201T; first compound 500 µM): 0.368; relative viability (NCI-H1755; first compound 5 µM): 0.736; relative viability (NCI-H1755; first compound 15.81 µM): 0.707; relative viability (NCI-H1755; first compound 50 µM): 0.675; relative viability (NCI-H1755; first compound 158.11 µM): 0.577; relative viability (NCI-H1755; first compound 500 µM): 0.608; relative viability (ChaGo-K-1; first compound 5 µM): 0.737; relative viability (ChaGo-K-1; first compound 15.81 µM): 0.685; relative viability (ChaGo-K-1; first compound 50 µM): 0.744; relative viability (ChaGo-K-1; first compound 158.11 µM): 0.518; relative viability (ChaGo-K-1; first compound 500 µM): 0.301; relative viability (NCI-H2009; first compound 5 µM): 0.726; relative viability (NCI-H2009; first compound 15.81 µM): 0.672; relative viability (NCI-H2009; first compound 50 µM): 0.657; relative viability (NCI-H2009; first compound 158.11 µM): 0.152; relative viability (NCI-H2009; first compound 500 µM): 0.0308; relative viability (NCI-H322M; first compound 5 µM): 0.809; relative viability (NCI-H322M; first compound 15.81 µM): 0.722; relative viability (NCI-H322M; first compound 50 µM): 0.777; relative viability (NCI-H322M; first compound 158.11 µM): 0.703; relative viability (NCI-H322M; first compound 500 µM): 0.161; relative viability (LK-2; first compound 5 µM): 0.333; relative viability (LK-2; first compound 15.81 µM): 0.278; relative viability (LK-2; first compound 50 µM): 0.344; relative viability (LK-2; first compound 158.11 µM): 0.553; relative viability (LK-2; first compound 500 µM): 0.28; relative viability (NCI-H2170; first compound 5 µM): 0.723; relative viability (NCI-H2170; first compound 15.81 µM): 0.783; relative viability (NCI-H2170; first compound 50 µM): 0.774; relative viability (NCI-H2170; first compound 158.11 µM): 0.541; relative viability (NCI-H2170; first compound 500 µM): 0.31; relative viability (H3255; first compound 5 µM): 0.765; relative viability (H3255; first compound 15.81 µM): 0.796; relative viability (H3255; first compound 50 µM): 0.639; relative viability (H3255; first compound 158.11 µM): 0.821; relative viability (H3255; first compound 500 µM): 0.716; relative viability (NCI-H2087; first compound 5 µM): 0.817; relative viability (NCI-H2087; first compound 15.81 µM): 0.725; relative viability (NCI-H2087; first compound 50 µM): 0.689; relative viability (NCI-H2087; first compound 158.11 µM): 0.374; relative viability (NCI-H2087; first compound 500 µM): 0.0093; relative viability (LXF-289; first compound 5 µM): 0.699; relative viability (LXF-289; first compound 15.81 µM): 0.707; relative viability (LXF-289; first compound 50 µM): 0.722; relative viability (LXF-289; first compound 158.11 µM): 0.483; relative viability (LXF-289; first compound 500 µM): 0.567; relative viability (NCI-H596; first compound 5 µM): 0.471; relative viability (NCI-H596; first compound 15.81 µM): 0.621; relative viability (NCI-H596; first compound 50 µM): 0.766; relative viability (NCI-H596; first compound 158.11 µM): 0.3; relative viability (NCI-H596; first compound 500 µM): 0.061; relative viability (CAL-12T; first compound 5 µM): 0.674; relative viability (CAL-12T; first compound 15.81 µM): 0.545; relative viability (CAL-12T; first compound 50 µM): 0.708; relative viability (CAL-12T; first compound 158.11 µM): 0.0538; relative viability (CAL-12T; first compound 500 µM): 0.039; relative viability (ABC-1; first compound 5 µM): 1.21; relative viability (ABC-1; first compound 15.81 µM): 0.811; relative viability (ABC-1; first compound 50 µM): 0.995; relative viability (ABC-1; first compound 158.11 µM): 0.701; relative viability (ABC-1; first compound 500 µM): 0.318; relative viability (NCI-H441; first compound 5 µM): 0.656; relative viability (NCI-H441; first compound 15.81 µM): 0.789; relative viability (NCI-H441; first compound 50 µM): 0.717; relative viability (NCI-H441; first compound 158.11 µM): 0.437; relative viability (NCI-H441; first compound 500 µM): 0.0026; relative viability (SK-MES-1; first compound 5 µM): 1.09; relative viability (SK-MES-1; first compound 15.81 µM): 0.921; relative viability (SK-MES-1; first compound 50 µM): 1.01; relative viability (SK-MES-1; first compound 158.11 µM): 0.169; relative viability (SK-MES-1; first compound 500 µM): 0.0799; relative viability (PC-14; first compound 5 µM): 0.732; relative viability (PC-14; first compound 15.81 µM): 0.612; relative viability (PC-14; first compound 50 µM): 0.611; relative viability (PC-14; first compound 158.11 µM): 0.0514; relative viability (PC-14; first compound 500 µM): 0.0074; relative viability (EMC-BAC-2; first compound 5 µM): 0.499; relative viability (EMC-BAC-2; first compound 15.81 µM): 0.339; relative viability (EMC-BAC-2; first compound 50 µM): 0.469; relative viability (EMC-BAC-2; first compound 158.11 µM): 0.356; relative viability (EMC-BAC-2; first compound 500 µM): 0.0895; relative viability (NCI-H1651; first compound 5 µM): 0.583; relative viability (NCI-H1651; first compound 15.81 µM): 0.528; relative viability (NCI-H1651; first compound 50 µM): 0.528; relative viability (NCI-H1651; first compound 158.11 µM): 0.438; relative viability (NCI-H1651; first compound 500 µM): 0.542; relative viability (NCI-H647; first compound 5 µM): 0.598; relative viability (NCI-H647; first compound 15.81 µM): 0.568; relative viability (NCI-H647; first compound 50 µM): 0.303; relative viability (NCI-H647; first compound 158.11 µM): 0.0385; relative viability (NCI-H647; first compound 500 µM): 0.014
